Experiment [1] in a line: growth inhibition of yeast vps1Δ mutant, dose response, S. cerevisiae, background strain comparison (AID 790). As to conditions: S. cerevisiae vps1Δ mutant growth inhibition; measured here: background strain growth inhibition.
Experiment [2] relates to S. cerevisiae vps1Δ mutant growth inhibition. Described as above.

Active and inactive are the calls of the source. The rule behind the calls is not given here.

On to `O=C(NC1CCN(Cc2ccccc2)CC1)C1COc2ccccc2O1` (stereo not given), for which the half-inhibitory concentration (IC50) is above 10 µM in experiment [1] and > 10 µM (inactive) in experiment [2].
Taken in the same sequence, the figures for `Cc1nnc(-c2cccc(Br)c2)c2cn(-c3ccccc3Cl)nc12` were 25.9 µM and 2.01 µM.
Consider `CCCCCCCCNc1ncnc2ccccc12`, for which the IC50 in experiment [1] is 14.8 µM; in experiment [2], > 10 µM (inactive).
For `O=C(O)c1cc(-c2ccc(/C=N/Nc3ccc(Cl)cc3)o2)ccc1Cl`, in that order: 16.4 µM and 4.51 µM.
Regarding `Cc1cc(C)n2nc(C(=O)NCc3ccccc3)cc2n1`, the IC50 was above 10 µM in experiment [1] and > 10 µM (inactive) in experiment [2].
For the compound `ON=Cc1cccn1-c1ccccc1`, the IC50 in experiment [1] was above 10 µM; in experiment [2], > 10 µM (inactive).
Taken in the same sequence, the figures for `c1ccc2c(c1)oc1c(Nc3ccc(CN4CCOCC4)cc3)ncnc12` were above 10 µM and > 10 µM (inactive).
For `Cc1ccc(S(=O)(=O)c2c(C)nn(C(C)(C)C)c2OC(=O)c2ccc(Br)o2)cc1`, in that order: above 10 µM and > 10 µM (inactive).
Regarding `Cc1cc(Cl)cc(C)c1OCCCCN1CCOCC1`, the half-maximal inhibitory concentration (IC50) in experiment [1] is above 10 µM; in experiment [2], > 10 µM (inactive).
As to `OC(Cn1ccnc1)c1ccc(Cl)cc1Cl` (stereo not given), the IC50 in experiment [1] is above 10 µM; in experiment [2] it was > 10 µM (inactive).
For `Cc1cccc(OCC(=O)O/N=C(\N)Cc2ccc(Cl)cc2)c1`, in that order: 10.4 µM and > 10 µM (inactive).
Regarding `Cc1cc(C)c2c(c1)/C(=C/C(=O)c1ccc(Br)s1)C(=O)N2`, the IC50 was 1.42 µM in experiment [1] and 3.71 µM (inactive) in experiment [2].
Take `O=C1CN(C(=O)CSc2nnc(-c3ccccc3)n2Cc2ccc3c(c2)OCO3)c2ccccc2N1`: the IC50 in experiment [1] was above 10 µM; in experiment [2], > 10 µM (inactive).
For `COc1ccc2c(c1)C(C)=CC(C)(C)N2C(=O)CSc1nnc(-c2ccc(C)cc2)o1`, in that order: above 10 µM and > 10 µM (inactive).
For `Cn1c2ccc(Cl)cc2c2nc3ccccc3nc21`, the values for the 50% inhibitory concentration (IC50) in experiment [1] and in experiment [2] were above 10 µM and > 10 µM (inactive), respectively.
Consider `O=C(OCn1nnc2ccccc2c1=O)c1cn(-c2ccccc2)nc1-c1cccnc1`, for which the 50% inhibitory concentration (IC50) in experiment [1] was above 10 µM; in experiment [2], > 10 µM (inactive).
Turning to `Cc1ccc(C(=O)c2c(NC(=O)c3ccncc3)sc3c2CCCC3)cc1`, the concentration for half-maximal inhibition (IC50) in experiment [1] was above 10 µM; in experiment [2], > 10 µM (inactive).
Taken in the same sequence, the figures for `O=C(c1ccco1)N1CCN(c2ncnc3c2[nH]c2ccccc23)CC1` were above 10 µM and > 10 µM (inactive).
Take `O=C(OCn1ncc(Cl)c(Cl)c1=O)c1cccc(C(F)(F)F)c1`: the IC50 is 3.51 µM in experiment [1] and 3.35 µM in experiment [2].
In the case of `CN1C(=O)/C(=C/c2cccn2-c2ccc3ccccc3c2)C(=O)NC1=S`, the half-inhibitory concentration (IC50) in experiment [1] was 6.58 µM; in experiment [2] it was 14.2 µM (inactive).
For `Cc1c(Cc2ccccc2)c(=O)oc2c(C)c(OCc3nn[nH]n3)ccc12`, the IC50 in experiment [1] was above 10 µM; in experiment [2], > 10 µM (inactive).
Taken in the same sequence, the figures for `CCOC(=O)c1ccc(NC(=O)c2ccc(CN3CCOCC3)cc2)cc1` were above 10 µM and > 10 µM (inactive).
For `Nc1ccc(Oc2ccc3nc(-c4ccccc4)c(-c4ccccc4)nc3c2)cc1`, in that order: 1.21 µM and 2.91 µM (inactive).
Taken in the same sequence, the figures for `CN1CCN(CCCNC(=O)Cn2nc(-c3ccccc3)ccc2=O)CC1` were above 10 µM and > 10 µM (inactive).
As for `Cc1cccc(CS(=O)(=O)Cc2ccc(C(=O)NCCCN3CCCC3)o2)c1`, the half-maximal inhibitory concentration (IC50) in experiment [1] was above 10 µM; in experiment [2] it was > 10 µM (inactive).
For `Cc1ccc(-n2cc3c(-c4cccc(Br)c4)nnc(C)c3n2)cc1`, in that order: 13.5 µM and 1.48 µM.
Taken in the same sequence, the figures for `O=C(COc1ccc(Cl)cc1Cl)N1CCN(C/C=C/c2ccccc2)CC1` were 7.14 µM and 13.2 µM (inactive).
Turning to `Cc1ccc(NS(=O)(=O)c2cc(C(=O)N3CCOCC3)ccc2C)cc1`, the IC50 is above 10 µM in experiment [1] and > 10 µM (inactive) in experiment [2].
Taken in the same sequence, the figures for `CCCCCOc1ccc(Cl)cc1CN1CCOCC1` were above 10 µM and > 10 µM (inactive).
For `CC(=O)c1ccc(N2CCN(C(=O)c3ccc(Br)cc3)CC2)c(F)c1`, in that order: 6.58 µM and 1.52 µM.
For `Cc1ccc(SC(C)C(=O)Nc2ncn[nH]2)cc1` (stereo not given), in that order: above 10 µM and > 10 µM (inactive).
As for `C/C(CCC12CC3CC(CC(C3)C1)C2)=N\NC(N)=S`, the results for the IC50 in experiment [1] and in experiment [2] were 5.28 µM and 12.7 µM (inactive), respectively.
As for `CCOC(=O)c1ccc(NC(=O)c2cn(-c3ccccc3)nc2-c2ccncc2)cc1`, the concentration for half-maximal inhibition (IC50) is 11.5 µM in experiment [1] and > 10 µM (inactive) in experiment [2].
For `CC1CN(CC(O)COc2ccc(C(C)C)cc2)CC(C)O1` (stereo not given), in that order: above 10 µM and > 10 µM (inactive).
Turning to `O=C(NCCc1ccccc1)C1CCN(S(=O)(=O)N2CCCC2)CC1`, the IC50 was above 10 µM in experiment [1] and > 10 µM (inactive) in experiment [2].

The values above are taken from PubChem BioAssay AID790 (SRMLSC, 2007).
